Results as given in publication PMC3849818 (Journal of medicinal chemistry, 2013).

Columns and labels:
OX1 = details: read-out: IC50 OX1; cited from earlier work
rats [1] = assay: Conditioned place preference; type: in vivo, Sprague-Dawley rats
[2] = 2-methylbenzoxazole undergoes ring opening under acidic conditions; cited from earlier work
OX2 = details: read-out: IC50 OX2; Actelion high throughput screening hit; cited from earlier work
OX2 receptor = target: T1, OX2 receptor (Homo sapiens, UniProt O43614); assay: OX2 calcium mobilization functional assay; type: cell-based
T1 sequence (O43614 1-444): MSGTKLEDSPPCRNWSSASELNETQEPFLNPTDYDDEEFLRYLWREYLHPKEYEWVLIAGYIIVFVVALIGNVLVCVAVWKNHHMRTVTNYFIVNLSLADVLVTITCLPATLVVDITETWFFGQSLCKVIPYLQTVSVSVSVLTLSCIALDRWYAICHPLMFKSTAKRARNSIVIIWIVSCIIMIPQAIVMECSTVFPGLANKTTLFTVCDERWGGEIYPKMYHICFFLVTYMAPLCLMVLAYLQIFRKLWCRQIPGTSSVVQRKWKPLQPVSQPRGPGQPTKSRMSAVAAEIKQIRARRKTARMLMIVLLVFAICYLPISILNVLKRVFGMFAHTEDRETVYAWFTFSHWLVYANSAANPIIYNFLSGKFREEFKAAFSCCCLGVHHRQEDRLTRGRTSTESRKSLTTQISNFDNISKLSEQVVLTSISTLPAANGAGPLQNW

orexin 1 (OX1) receptor = target: T2, orexin 1 (OX1) receptor (Homo sapiens, UniProt O43613); assay: OX1 calcium mobilization functional assay; type: cell-based; details: ratio of Ke values
T2 sequence (O43613 1-425): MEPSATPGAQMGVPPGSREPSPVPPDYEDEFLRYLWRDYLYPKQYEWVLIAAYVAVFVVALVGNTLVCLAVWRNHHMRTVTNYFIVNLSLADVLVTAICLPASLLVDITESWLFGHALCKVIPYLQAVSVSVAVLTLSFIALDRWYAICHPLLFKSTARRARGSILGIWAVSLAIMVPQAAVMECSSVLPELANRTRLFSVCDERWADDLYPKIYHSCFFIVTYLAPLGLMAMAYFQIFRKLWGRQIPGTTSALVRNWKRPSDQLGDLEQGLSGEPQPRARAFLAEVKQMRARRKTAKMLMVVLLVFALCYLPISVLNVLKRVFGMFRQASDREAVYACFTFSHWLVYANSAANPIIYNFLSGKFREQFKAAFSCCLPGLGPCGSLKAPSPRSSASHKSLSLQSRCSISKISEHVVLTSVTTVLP

rats [3] = assay: Drug discrimination assay; type: in vivo; details: 10 min pretreatment, data not shown

| Compound | Kd (OX2 receptor) [µM] | OX2/OX1 (orexin 1 (OX1) receptor) | other results |
| --- | --- | --- | --- |
| COc1ccc(C[C@H]2c3cc(OC)c(OC)cc3CCN2[C@@H](C(=O)NC(C)C)c2ccccc2)cc1OC [ACT-335827, reference compound] |  |  | IC50 (OX1): 0.006 µM |
| COC(=O)[C@H]1[C@@H](OC(=O)c2ccccc2)C[C@@H]2CC[C@H]1N2C [Cocaine, reference compound] |  |  | CPP produced by drug alone (rats [1]; 10 mg/kg i.p., n=8-9): induced robust and significant CPP |
| Cc1nc2ccc(NC(=O)Nc3ccnc4cccnc34)cc2o1.Cl [Compound 1] |  |  | hydrolytic stability [2]: hydrolytic instability |
| COc1ccc(CC2c3cc(OC)c(OC)cc3CCN2CC(=O)NCc2ccccc2)cc1OC (centres unmarked) [Compound 6, N-benzyl-2-{1-[(3,4-dimethoxyphenyl)methyl]-6,7-dimethoxy-1,2,3,4-tetrahydroisoquinolin-2-yl}acetamide] | > 10 |  | IC50 (OX2): 8.1 µM |
| COc1ccc(CC2c3cc(OC)c(OC)cc3CCN2CC(=O)NCc2cccnc2)cc1OC (centres unmarked) [Compound 54, 2-{1-[(3,4-dimethoxyphenyl)methyl]-6,7-dimethoxy-1,2,3,4-tetrahydroisoquinolin-2-yl}-N-(pyridin-3-ylmethyl)acetamide] | > 10 | >65.8 |  |
| COc1ccc(CC2c3cc(OC)c(OC)cc3CCN2CC(=O)NCc2ccc(N(C)C)cc2)cc1OC (centres unmarked) [Compound 56, 2-{1-[(3,4-dimethoxyphenyl)methyl]-6,7-dimethoxy-1,2,3,4-tetrahydroisoquinolin-2-yl}-N-{[4-(dimethylamino)phenyl]methyl}acetamide] | > 10 | >3.1 |  |
| CCCCCC(=O)Nc1ccc(CNC(=O)CN2CCc3cc(OC)c(OC)cc3C2Cc2ccc(OC)c(OC)c2)cc1 (centres unmarked) [Compound 58, N-{4-[(2-{1-[(3,4-dimethoxyphenyl)methyl]-6,7-dimethoxy-1,2,3,4-tetrahydroisoquinolin-2-yl}acetamido)methyl]phenyl}hexanamide] | 3.79 ± 0.67 | <0.4 |  |
| CCCOc1cc2c(cc1OC)CCN(CC(=O)NCc1ccccn1)C2Cc1ccc(OC)c(OC)c1 (centres unmarked) [Compound 69, 2-{1-[(3,4-dimethoxyphenyl)methyl]-6-methoxy-7-propoxy-1,2,3,4-tetrahydroisoquinolin-2-yl}-N-(pyridin-2-ylmethyl)acetamide] | > 10 | >485 |  |
| CCCOc1cc2c(cc1OC)CCN(CC(=O)NCc1cccnc1)C2Cc1ccc(OC)c(OC)c1 (centres unmarked) [Compound 70, 2-{1-[(3,4-dimethoxyphenyl)methyl]-6-methoxy-7-propoxy-1,2,3,4-tetrahydroisoquinolin-2-yl}-N-(pyridin-3-ylmethyl)acetamide] | > 10 | >239 |  |
| COc1ccc(CC2c3cc(OCC(F)(F)F)c(OC)cc3CCN2CC(=O)NCc2ccccn2)cc1OC (centres unmarked) [Compound 71, 2-{1-[(3,4-dimethoxyphenyl)methyl]-6-methoxy-7-(2,2,2-trifluoroethoxy)-1,2,3,4-tetrahydroisoquinolin-2-yl}-N-(pyridin-2-ylmethyl)acetamide] | > 10 | >444 |  |
| COc1ccc(CC2c3cc(OCC(F)(F)F)c(OC)cc3CCN2CC(=O)NCc2cccnc2)cc1OC (centres unmarked) [Compound 72, 2-{1-[(3,4-dimethoxyphenyl)methyl]-6-methoxy-7-(2,2,2-trifluoroethoxy)-1,2,3,4-tetrahydroisoquinolin-2-yl}-N-(pyridin-3-ylmethyl)acetamide] | > 10 | >1180 | effect on development of place preference induced by cocaine (rats [1]; 20 mg/kg i.p. 10 min before cocaine 10 mg/kg, P < 0.05 vs cocaine): significantly attenuated; CPP produced by compound alone (rats [1]; 20 mg/kg i.p., n=8-9): did not produce CPP or place aversion; behavioral activity in drug discrimination (rats [3]): behaviorally active |
| CCOc1cc2c(cc1OC)CCN(CC(=O)NCc1ccccn1)C2Cc1ccc(OC)c(OC)c1 (centres unmarked) [Compound 73, 2-{1-[(3,4-dimethoxyphenyl)methyl]-7-ethoxy-6-methoxy-1,2,3,4-tetrahydroisoquinolin-2-yl}-N-(pyridin-2-ylmethyl)acetamide] | > 10 | >114 |  |
| CCOc1cc2c(cc1OC)CCN(CC(=O)NCc1cccnc1)C2Cc1ccc(OC)c(OC)c1 (centres unmarked) [Compound 74, 2-{1-[(3,4-dimethoxyphenyl)methyl]-7-ethoxy-6-methoxy-1,2,3,4-tetrahydroisoquinolin-2-yl}-N-(pyridin-3-ylmethyl)acetamide] | > 10 | >637 |  |
